In patent US6126966A (Sequus Pharmaceuticals, Inc., priority 1999, dated 2000):

Experiments:
[1] = preclinical studies; Weiss, et al., 1993; cited from earlier work
C26 colon tumor = C26 colon tumor model, altered dosing schedule (FIG. 6); type: in vivo, mice (Balb/c, male); conditions: IV, days 12, 19, 26, free cisplatin 6 mg/kg, liposomal 6, 12/4/4 or 14/4/4 mg/kg
Description: That is, liposome-entrapped cisplatin was administered with a larger loading dose followed by smaller doses at the second and third weeks.
The C26 colon tumor model was grown in Balb/c, male mice (Simonson Laboratories, Inc., Gilroy, Calif.). Tumors were harvested from donor mice for and minced finely in RPMI media with 10% fetal calf serum (FCS). Tumors were then digested with enzyme mix (10 ml 0.25% protease type IX and 0.25% collagenase type IV in Hank's balanced salt solution (HBSS) and 0.2% ml 0.02% DNase in HBSS) for 30-60 minutes at 37° C. Single cell suspension of tumor cells was washed twice in RPMI media with FCS, concentrated by centrifugation and resuspended in RPMI media with FCS for inoculation. One million tumor cells (0.1 ml) were inoculated in the left flank of 5-6 week old mice.
2. Altered Dosing Schedule. Mice were inoculated with the C26 colon tumor cells according to the above-described procedure. Treatment of the tumor-bearing mice was initiated when the majority of animals had palpable tumors mass of about 100 mm^3.
Cisplatin entrapped in liposomes, prepared as described above, was administered intravenously according to three dosing schedules to tumor-bearing mice. […] The control group (n=5) received saline on each treatment day.

Lewis lung carcinoma = assay: Lewis lung tumor model (FIG. 7); type: in vivo, mice (B6C3-F1, male); conditions: days 7, 14, 21, free cisplatin 6 mg/kg, liposomal 12 mg/kg
Description: Mice bearing the Lewis lung carcinoma tumor model were treated with cisplatin, administered intravenously and intraperitoneally, or with liposome-entrapped cisplatin, administered similarly. […] A control group of tumor-bearing mice were treated with saline.
The Lewis lung tumor (LL/2, CRL-1642, ATCC, Rockville, Md.) model was grown in G6C3-F1, male mice (Simonson Laboratories, Inc., Gilroy, Calif.). Tumors were harvested from donor mice and processed as above for inoculation of an experiment. One million tumor cells (0.1 ml) were inoculated in the left flank of 5-6 week old, male, B6C3-F1 mice.
Treatment of the tumor-bearing animals was initiated seven days after inoculation, when the majority of animals had palpable tumor masses.
The control group (n=9) received saline on the treatment days (days 7, 14 and 21).

[2] = IV, once per week for 3 weeks, mice; cited from earlier work
[3] = Freise, et al., 1982; cited from earlier work
[4] = system: tumor models in laboratory animals and human tumors; conditions: Sur 1983; Steerenberg 1987; cited from earlier work
[5] = system: squamous cell cancer of the head and neck; conditions: 80 mg/m^2, 24-hour intravenous infusion; Prestayko, 1991; cited from earlier work

Structure (SMILES)	antitumor activity relative to cisplatin [1]	nephrotoxicity relative to cisplatin [1]	tumor mass (C26 colon tumor)	antitumor response, IV vs IP administration (Lewis lung carcinoma)	maximally tolerated dose [2] [mg/kg]	excretion via the kidneys [3]	antitumor effectiveness [4]	clinical response [5]
N.N.O=C([O-])C1(C(=O)[O-])CCC1.[Pt+2] [carboplatin, 1,1-cyclobutane-dicarboxylate-diammineplatinum]	equivalent or greater antitumor activity than cisplatin	less nephrotoxicity						
N.N.[Cl][Pt][Cl] [cisplatin, cis-diamine-dichloroplatinum (II)]			continual increase in tumor mass	similar	6	rapid excretion via the kidneys	highly effective in the treatment of tumor models in laboratory animals and in human tumors	favorable response
